Experimental data published in PubChem BioAssay AID1963440 (Molecular Pharmacology Branch, DTP, NCI, 2024).

Tested on: NCI-H1417 complex spheroids, growth % test/control
Experiment: Anticancer human tumor NCI-H1417 cell line growth inhibition [Asc];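 note: spheroids exposed to compounds for 7 days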;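 for viability, T/C: 100% = DMSO vehicle control wells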
Details: for IC50: curve of first compound; for viability, T/C: stronger effect = lower value
How it was run: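 Tumor cells were grown as multicellular spheroids with stromal HUVEC and mesenchymal stem cells and treated singly or in combination. Concentrations fell in half-log steps from the clinical Cmax, or from 10 microM where none was known.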

[1] = second compound 0.1 µM, first compound 0.00316 µM
[2] = second compound 0.1 µM, first compound 0.01 µM
[3] = second compound 0.1 µM, first compound 0.0316 µM
[4] = second compound 0.1 µM, first compound 0.1 µM
[5] = second compound 0.1 µM, first compound 0.316 µM
[6] = second compound 0.1 µM, first compound 1 µM
[7] = second compound 0.316 µM, first compound 0.00316 µM
[8] = second compound 0.316 µM, first compound 0.01 µM
[9] = second compound 0.316 µM, first compound 0.0316 µM
[10] = second compound 0.316 µM, first compound 0.1 µM
[11] = second compound 0.316 µM, first compound 0.316 µM
[12] = second compound 0.316 µM, first compound 1 µM
[13] = second compound 1 µM, first compound 0.00316 µM
[14] = second compound 1 µM, first compound 0.01 µM
[15] = second compound 1 µM, first compound 0.0316 µM
[16] = second compound 1 µM, first compound 0.1 µM
[17] = second compound 1 µM, first compound 0.316 µM
[18] = second compound 1 µM, first compound 1 µM
[19] = second compound 3.16 µM, first compound 0.00316 µM
[20] = second compound 3.16 µM, first compound 0.01 µM
[21] = second compound 3.16 µM, first compound 0.0316 µM
[22] = second compound 3.16 µM, first compound 0.1 µM
[23] = second compound 3.16 µM, first compound 0.316 µM
[24] = second compound 3.16 µM, first compound 1 µM
[25] = second compound 10 µM, first compound 0.00316 µM
[26] = second compound 10 µM, first compound 0.01 µM
[27] = second compound 10 µM, first compound 0.0316 µM
[28] = second compound 10 µM, first compound 0.1 µM
[29] = second compound 10 µM, first compound 0.316 µM
[30] = second compound 10 µM, first compound 1 µM

Row | SMILES | IC50 (second compound 0.1 µM) [nM] | IC50 (second compound 0.316 µM) [nM] | IC50 (second compound 1 µM) [nM] | IC50 (second compound 3.16 µM) [nM] | IC50 (second compound 10 µM) [nM] | viability, T/C [1] [%] | viability, T/C [2] [%] | viability, T/C [3] [%] | viability, T/C [4] [%] | viability, T/C [7] [%] | viability, T/C [8] [%] | viability, T/C [9] [%] | viability, T/C [10] [%] | viability, T/C [13] [%] | viability, T/C [14] [%] | viability, T/C [15] [%] | viability, T/C [16] [%] | viability, T/C [19] [%] | viability, T/C [20] [%] | viability, T/C [21] [%] | further results
1 | CCN1CCN(Cc2ccc(Nc3ncc(F)c(-c4cc(F)c5nc(C)n(C(C)C)c5c4)n3)nc2)CC1 + Cc1c(S(C)(=O)=O)c(-c2cc(F)cc(N3CCN(c4ccc(NS(=O)(=O)c5ccc(NC(CCN6CCC(C(=O)OCCCP(=O)(O)O)CC6)CSc6ccccc6)c(S(=O)(=O)C(F)(F)F)c5)cc4)CC3)c2)c(-c2ccc(Cl)cc2)n1C(C)C | > 1000 | < 3.16 | < 3.16 | < 3.16 | < 3.16 | 88.6 | 83.6 | 82.2 | 69.5 | 47.8 | 45.8 | 44.7 | 28.9 | 14.4 | 12 | 10.6 | 7.35 | 2.92 | 2.69 | 2.77 | viability, T/C [5]: 66.6%; viability, T/C [6]: 58.1%; viability, T/C [11]: 24%; viability, T/C [12]: 21%; viability, T/C [17]: 6.95%; viability, T/C [18]: 2.98%; viability, T/C [22]: 2.85%; viability, T/C [23]: 2.68%; viability, T/C [24]: 3.02%; viability, T/C [25]: 2.2%; viability, T/C [26]: 2.36%; viability, T/C [27]: 2.21%; viability, T/C [28]: 1.72%; viability, T/C [29]: 2.26%; viability, T/C [30]: 2.79%
2 | Cn1ncnc1[C@H]1c2n[nH]c(=O)c3cc(F)cc(c23)N[C@@H]1c1ccc(F)cc1 + Cc1c(S(C)(=O)=O)c(-c2cc(F)cc(N3CCN(c4ccc(NS(=O)(=O)c5ccc(NC(CCN6CCC(C(=O)OCCCP(=O)(O)O)CC6)CSc6ccccc6)c(S(=O)(=O)C(F)(F)F)c5)cc4)CC3)c2)c(-c2ccc(Cl)cc2)n1C(C)C | 3.84 | < 0.316 | < 0.316 | < 0.316 | < 0.316 | 54.8 | 21.9 | 8.37 | 5.48 | 31.7 | 5.82 | 3.42 | 3.86 | 6.37 | 3.13 | 2.7 | 3.15 | 2.64 | 2.34 | 3.42 | viability, T/C (second compound 0.1 µM, first compound 0.000316 µM): 85.9%; viability, T/C (second compound 0.1 µM, first compound 0.001 µM): 83.2%; viability, T/C (second compound 0.316 µM, first compound 0.000316 µM): 46.7%; viability, T/C (second compound 0.316 µM, first compound 0.001 µM): 42.7%; viability, T/C (second compound 1 µM, first compound 0.000316 µM): 12.5%; viability, T/C (second compound 1 µM, first compound 0.001 µM): 10.4%; viability, T/C (second compound 3.16 µM, first compound 0.000316 µM): 3.13%; viability, T/C (second compound 3.16 µM, first compound 0.001 µM): 2.74%; viability, T/C [22]: 2.69%; viability, T/C (second compound 10 µM, first compound 0.000316 µM): 2.53%; viability, T/C (second compound 10 µM, first compound 0.001 µM): 2.63%; viability, T/C [25]: 2.54%; viability, T/C [26]: 2.98%; viability, T/C [27]: 3.14%; viability, T/C [28]: 2.76%
3 | O=C(c1ccc(F)c(F)c1Nc1ccc(I)cc1F)N1CC(O)([C@@H]2CCCCN2)C1 + Cc1c(S(C)(=O)=O)c(-c2cc(F)cc(N3CCN(c4ccc(NS(=O)(=O)c5ccc(NC(CCN6CCC(C(=O)OCCCP(=O)(O)O)CC6)CSc6ccccc6)c(S(=O)(=O)C(F)(F)F)c5)cc4)CC3)c2)c(-c2ccc(Cl)cc2)n1C(C)C | > 1000 | < 3.16 | < 3.16 | < 3.16 | < 3.16 | 84.2 | 81.2 | 80.8 | 83.7 | 46.5 | 50.1 | 44.7 | 37.9 | 13.9 | 11.9 | 10.4 | 5.1 | 2.87 | 2.41 | 2.22 | viability, T/C [5]: 71.5%; viability, T/C [6]: 59.1%; viability, T/C [11]: 28.8%; viability, T/C [12]: 33.4%; viability, T/C [17]: 2.22%; viability, T/C [18]: 2.04%; viability, T/C [22]: 0.97%; viability, T/C [23]: 0.48%; viability, T/C [24]: 0.27%; viability, T/C [25]: 2.15%; viability, T/C [26]: 1.85%; viability, T/C [27]: 1.55%; viability, T/C [28]: 0.9%; viability, T/C [29]: 1.3%; viability, T/C [30]: 0.32%
